Read-outs that look alike come from different tables or passages of the source.
Experiments:
[1] = tested on: Vpr-BLaM containing NL-4.3 or NL-4.3Δenv-VSV-G viruses; assay type: cell-based, HIV-1
HIV-1 intasome = settings: MN assembled onto natural DO2 sequence
HIV-1 subtype B virus [2] = assay: qPCR quantification of viral DNA populations in infected PBMCs; assay type: cell-based
[3] = tested on: PFV intasome/nucleosome complex; assay: AlphaLISA PFV intasome/nucleosome interaction assay; assay type: binding, prototype foamy virus (PFV); human mononucleosome
Experimental: AlphaLISA is a technology particularly suitable for bimolecular inhibitor screening assays using protein-protein interactions with purified recombinant proteins. The AlphaLISA assay development was performed in 96-well 12 area Alphaplate (reference 6052340, PerkinElmer, Waltham, MA, USA) with a final reaction volume of 40 µL. Cross-titration experiments of biotinylated MN (0–50 nM) against DIG-intasome (0–100 nM) were carried out to establish optimal assay concentrations for the binding assay. Ten microliters of each protein were diluted in the binding buffer 50 mM BisTris-propane pH 7, 100 mM NaCl, 0.1% (v/v) Tween-20, 0.1% (w/v) BSA, and 1 mM dithiothreitol. The plate was incubated at RT for 2 h in rotation. Ten microliters of anti-DIG acceptor beads (PerkinElmer, reference AL113) were then added, and after 1 h of incubation at RT with rotation, 10 µL of streptavidin […] (Perkin Elmer, reference 6760002) was mixed to the wells. This established a final concentration of 20 µg/mL for each bead. The plate was then incubated for 1 h at RT in the dark before the AlphaLISA signal was detected using an EnSpire Multimode Plate Reader (PerkinElmer). Negative control with binding buffer or only with one of the complexes was used to control the assay quality. Data were analyzed with GraphPad Prism 5.01 software. To evaluate tolerance for DMSO, the assay was performed as described above with an addition of 0.15–20% (v/v) of DMSO during the binding step. For the competition experiment, increasing concentrations of untagged intasome were titrated out in the 1-nM DIG-intasome/biotinylated nucleosome interaction assay.
For the AlphaLISA screening assay with the NIH OncoSET library, the binding conditions were optimized for use in 384-well plate (Optiplate, reference 6007290, PerkinElmer) with the same concentrations for complexes and beads in a final reaction volume of 20.5 µL (2.5% DMSO final concentration). The screening was first carried out with 25 µM of each compound pre-incubated for 1 h with 1 nM intasome/nucleosome complexes. Compounds were selected as inducing at least 50% decrease of the AlphaLISA signal control condition, and their inhibitory effect was further tested using dose-response curves. For compounds validation, counter select assay was performed using a short DNA fragment carrying a biotin and a DIG tag on each side. The AlphaLISA signal was monitoring using increasing concentrations of the double-tagged DNA, and the selected compounds were tested in optimized conditions at 10 µM. Any compound that causes decreased signal means that it interferes with AlphaLISA readout, and therefore, it is not relevant to this assay.

PFV intasome = PFV intasome (Human spumaretrovirus, UniProt P14350); assay: biochemical; assay type: biochemical, prototype foamy virus (PFV); parameters: Briefly, PFV IN and its cognate vDNA were mixed, and assembled intasomes were purified by size exclusion chromatography; octamers produced in E. coli; settings: for inhibition of PFV integration into MNs: 30 nM FITC PFV intasome, MN, drugs 0–25 µM
Experimental: Integration assays using purified assembled intasomes were performed as followed: either 100 ng of naked DNA or 100 ng of DNA assembled on 100 ng of histone octamers (24 nM final concentration) was incubated with 30 nM final concentration of purified intasome in 100 mM NaCl, 20 mM BTP pH 7, 12.5 mM MgSO4 (for PFV intasome), or in 20 mM HEPES pH 7, 7.5% DMSO, 8% PEG, 10 mM MgCl2, 20 µM ZnCl2, 100 mM NaCl, 5 mM DTT final concentration (for HIV-1 intasome) in a final volume of 40 µL. The mix was then incubated at 37°C for 15 min and 1 h, respectively. Then, reaction was stopped by the addition of 5.5 µL of a mix containing 5% SDS and 0.25 M EDTA and deproteinized with proteinase K (Promega) for 1 h at 37°C. Nucleic acids were then precipitated with 150 µL of ethanol overnight at −20°C. Samples were then spun at top speed for 1 h at 4°C, and the pellets were dried and then resuspended with DNA loading buffer. Integration products were separated on an 8% native polyacrylamide gel.

HIV-1 subtype B virus [4] = assay: HIV-1 infection assay in PBMCs (HIV-1 RNA in supernatant); assay type: cell-based; settings: Human immunodeficiency virus 1, PBMC, read-out: IC50 of HIV-1 replication
Experimental: PBMCs were isolated from blood samples using Ficoll-Hypaque gradient centrifugation. After separation, PBMCs were pelleted by centrifugation. […] Next, PBMCs were harvested (7 min, 400 × g) and resuspended in 500 µL culture medium. […] Then, the medium was removed, and 10 mL of RPMI 1640 was added to wash the cells. The cells were harvested at low speed (400 × g), and the washed-cell pellet was resuspended in 2 mL of supplemented RPMI 1640. The cell suspension was added to wells of a 24-well tissue culture plate and incubated at 37°C. HIV-1 RNA from plasma samples was determined at 24, 48, and 72 h postinfection.

mononucleosome (MN) = assay: histone eviction assay (EMSA / SDS-PAGE); assay type: biochemical, human; settings: 10 µM or increasing concentrations
[5] = tested on: HIV-1 intasome (vDNA•IN•LEDGF/p75); assay: in vitro HIV-1 concerted integration onto mononucleosome; assay type: biochemical
histone tails = target: histone tails; parameters: method as in PMID 26503405; settings: ref [18]; cited from earlier work

COc1cccc2c1C(=O)c1c(O)c3c(c(O)c1C2=O)C[C@@](O)(C(=O)CO)C[C@@H]3O[C@H]1C[C@H](N)[C@H](O)[C@H](C)O1 [Doxorubicin, doxorubicin]
effect on viral fusion / entry [1]: did not affect this early entry step | inhibition of HIV-1 integration into DO2 nucleosome (HIV-1 intasome): as efficient in inhibiting the HIV-1 integration into DO2 nucleosome than onto the 601 nucleosome | effect on total viral DNA (HIV-1 subtype B virus [2]; 20 h postinfection): no effect | effect on integrated DNA (HIV-1 subtype B virus [2]; infected PBMCs): decreased | effect on two-LTR circles (HIV-1 subtype B virus [2]; infected PBMCs): increased | decrease in the AS signal ([3]; OncoSET screen, 25 µM drug, 1 nM of each partner): at least 50% | IC50 ([3]; intasome/nucleosome AS assay, increasing drug concentrations, Fig. 3E): 870 ± 40 nM | effect on the intasome/nucleosome AS signal ([3]; retest at 10 µM, MN): strong inhibitory effect | IC50 (PFV intasome): < 1000 nM | inhibition of PFV integration into MNs (PFV intasome): able to inhibit PFV integration into MNs | IC50 (HIV-1 subtype B virus [4]): 2 to 20 nM | histone eviction / MN dissociation (mononucleosome (MN)): full shift of the nucleosomal DNA in addition to a strong MN dissociation | cytotoxicity (PBMC cells): poor cytotoxicity | IC50 ([5]; preformed HIV-1 intasome, MN, read-out: IC50 of in vitro HIV-1 integration): ~300 nM | IC50 ([5]; preformed HIV-1 intasome, native MN (601), read-out: IC50 of in vitro HIV-1 integration): < 1000 nM

O=S(=O)(O)c1cc2c(O)c(c1)Cc1cc(S(=O)(=O)O)cc(c1O)Cc1cc(S(=O)(=O)O)cc(c1O)Cc1cc(S(=O)(=O)O)cc(c1O)C2 [CA1]
inhibition of intasome/nucleosome association in AS ([3]; increasing drug concentrations): less efficient in inhibiting the association | inhibition of PFV integration into MNs (PFV intasome): inefficient in our assay | IC50 ([5]; Table 4, title: in vitro HIV-1 integration inhibition, read-out: Integration IC50): > 1000 nM | Kd (histone tails): 17.8 to 20.4 µM
